Laboratory results taken from publication PMC7078208, “Interaction of SHP-2 SH2 domains with PD-1 ITSM induces PD-1 dimerization and SHP-2 activation” (Communications Biology, 2020).

Key:
[1] = tested on: SHP-2-WT; test: SHP-2 phosphatase activity, DiFMUP substrate; type: biochemical
[2] = tested on: SHP-2-R32A; test: SHP-2 phosphatase activity, DiFMUP substrate, R32A mutant; type: biochemical; details: 4-Ahx spacer peptide; Fig. 5c
Description: (§1) Catalytic activity of SHP-2 was monitored by a fluorescent assay using the substrate 6,8-difluoro-4-[…] (DiFMUP) as previously with slight modifications[38],[68]. Specifically, the phosphatase reactions were performed in 50 mM HEPES, pH 7.4, 100 mM NaCl and 10 mM DTT in 96-well black polystyrene plate, flat bottom, non-binding surface, using a final reaction volume of 100 µl. In all, 1.6 µg/ml of SHP-2-WT or mutant proteins were incubated with 20 µM DiFMUP with the indicated concentrations of phosphotyrosyl peptides or without peptide at 37 °C. For some experiments with highly SHP-2-activating peptides we used 0.5 µg/ml of SHP-2-WT so that activity measurements could fall within range. Fluorescence signal was monitored every 1 min for 3 min by a SpectraMax5 microplate reader and reaction rate was calculated by the change of fluorescence signal with time using excitation and emission wavelengths of 340 nm and 450 nm, respectively. Under these conditions, product formation was linear with respect to the time of incubation. Results were normalized against the basal activity determined for each condition in the absence of peptide and activity was calculated.

[3] = tested on: SHP-2-R138A; test: SHP-2 phosphatase activity, DiFMUP substrate, R138A mutant; type: biochemical; details: Fig. 5c
Description: as §1

[4] = tested on: PD-1-SmBiT: PD-1-LgBiT complex (PD-1: PD-1 interaction) in HEK-293 cells; test: NanoBiT assay for PD-1 dimerization in HEK-293 cells; type: cell-based, human; details: HEK-293 transfected with PD-1-SmBiT, active Fyn and SHP-2, increasing amounts, Fig. 4e

## TE(pY)ATIVFP-Ahx4-QTE(pY)ATIVFPS [bpITSM, bisphosphoryl ITSM-ITSM peptide with 4-Ahx spacer]
[1]; DiFMUP substrate, Fig. 5a
  fold lower phosphopeptide concentration for robust increase in SHP-2 activity than pITIM-pITSM: 1000 fold
[1]; Supplementary Fig. 12, peptides at 20 nM
  potency in inducing SHP-2 activation compared with bpIRS: approximately three times more potent
[2]
  SHP-2 activity caused by peptide: abrogated
[3]; 4-Ahx spacer peptide
  SHP-2 activity caused by peptide: abrogated
[3]
  peptide concentration at which a small induction of SHP-2 activity was observed: above 1 µM

## CC1(N)CCN(c2cnc(-c3cccc(Cl)c3Cl)c(N)n2)CC1 [SHP099]
[4]
  effect on PD-1: PD-1 interaction: dose-dependent inhibition of PD-1: PD-1 interaction
